Reference: patent publication US12133900B2, “Synthesis and composition of amino acid linking groups conjugated to compounds used for the targeted imaging of tumors” (Purdue Research Foundation, priority 2013, dated 2024)
“Also recorded” adds a separate entry of the source.

Experiments:
[1] = test system: folate receptor positive KB tumor xenografts; assay: Whole body imaging and tissue biodistribution, KB tumor xenografts; type: in vivo, mice; details: for tumor uptake: 0.3 nmol dose i.v.; for non-specific uptake: 60 and 90 nmol doses i.v.
Description: (§1) Seven-week-old female nu/nu mice were inoculated subcutaneously with KB cells (1.0×10^6/mouse in folate free RPM11640 medium) on the shoulder. […] […] Whole body imaging (intact tumor) experiments were then performed using a Caliper IVIS Lumina II Imaging Station with Living Image 4.0 software (PerkinElmer Inc, MA). Settings for imaging:—lamp level: medium; excitation: 745 nm; emission: 830 nm; epi illumination; binning: 4 (M), FOV=12.5; f-stop=2; acquisition time=1 s.
(§2) Following whole body imaging, animals were dissected and selected tissues (heart, lung, liver, spleen, kidneys, stomach, small intestine, large intestine, muscle, skin, tumor) were analyzed for fluorescence activity using IVIS imager as before. Settings for imaging: lamp level: medium; excitation: 745 nm; emission: 830 nm; epi illumination; binning: 4 (M), FOV=12.5; f-stop=2; acquisition time=1 s.
as §1, with “shoulder. Growth of the tumors was measured in perpendicular directions every 2 days using a caliper (body weights were monitored on the same schedule), and the volumes of the tumors were calculated as 0.5×L×W^2 (L=longest axis and W=axis perpendicular to L in millimeters).” for “shoulder.”, “ICG (830 nm);” for “830 nm;”
as §2, with “skin, and” for “skin,”, “imaging:—lamp” for “imaging: lamp”, “emission:ICG (830 nm);” for “emission: 830 nm;”
Five-week-old female nu/nu mice were inoculated subcutaneously with KB cells (1.0×10^6/mouse in RPMI medium) on their shoulders. Growth of the tumors was measured in two perpendicular directions every 2 days using a caliper (body weights were monitored on the same schedule), and the volumes of the tumors were calculated as 0.5×L×W^2 (L) longest axis and W) axis perpendicular to L in millimeters). Once tumors reached between 400 and 500 mm3 in volume, animals were treated with folate receptor-targeted NIR dye conjugate (10 nmol) in phosphate buffered saline (100 μL). […]
Animal imaging experiments were performed using a Caliper Ivis Lumina II Imaging Station with Living Image 4.0 software. Settings for imaging Alexa Fluor 647 and DyLight 680 conjugates: lamp level: high; excitation: 605; emission: Cy5.5; epi illumination; binning: (M) 4; FOV=7.5; f-stop=4; acquisition time=1 s. Settings for imaging DyLight 750 and IR800CW conjugates: lamp level: high; excitation: 745; emission: ICG; epi illumination; binning: (M) 4, FOV=12.5; f-stop=4; acquisition time=1 s.
Seven-week-old female nu/nu mice were inoculated subcutaneously with KB cells (1.0×10^6/mouse in folate free RPM11640 medium) on the shoulder. Growth of the tumors was measured in perpendicular directions every 2 days using a caliper (body weights were monitored on the same schedule), and the volumes of the tumors were calculated as 0.5×L×W^2 (L=longest axis and W=axis perpendicular to L in millimeters). Once tumors reached between 400 and 500 mm3 in volume, animals (5 mice/group) were intravenously injected with 10 nmol of OTL-0038 or OTL-0039 in phosphate buffered saline (100 μL). After 2.5 hours, animals were euthanized by CO2 asphyxiation. Whole body imaging (intact tumor) experiments were then performed using a Caliper IVIS Lumina II Imaging Station with Living Image 4.0 software (PerkinElmer Inc, MA). […]

[2] = test system: FR-positive IGROV tumor xenografts; assay: Imaging and biodistribution, IGROV ovarian xenograft; type: in vivo, mice; details: 2 nmol, 2 h
Description: Seven-week-old female nu/nu mice were inoculated subcutaneously with KB (1.0×10^6/mouse in RPM11640 medium), IGROV (5.0×10^6/mouse in 50% high concentrated matrigel+RPM11640 medium), SKOV3 (5.0×10^6/mouse in RPM11640 medium), OVCAR3 (5.0×10^6/mouse in RPM11640 medium), MDA-MB231 (1.0×10^6/mouse in RPM11640 medium), M109 (1.0×10^6/mouse in RPM11640 medium) or A549 cells (2.0×10^6/mouse in RPM11640 medium) on the shoulder. Growth of the tumors was measured in perpendicular directions every 2 days using a caliper (body weights were monitored on the same schedule), and the volumes of the tumors were calculated as 0.5×L×W^2 (L=longest axis and W=axis perpendicular to L in millimeters). Once tumors reached approximately 300-400 mm3 in volume, animals (3-5 mice/group) were intravenously injected with the compound of interest in PBS (for dose escalation in KB tumor model: 0.3-90 nmol, for time dependent in KB tumor model: 2 or 10 nmol, and for general whole body imaging and biodistribution for all tumor models: 2 nmol, in 100 μL in PBS per mouse). For whole body imaging and biodistribution studies, animals were euthanized 2 hours after administration of the compound of interest by CO2 asphyxiation. For time dependent studies, animals were imaged under anesthesia using isoflurane. Whole body imaging (intact tumor) experiments was then performed using a Caliper IVIS Lumina II Imaging Station with Living Image 4.0 software (PerkinElmer Inc, MA).
Following whole body imaging, animals were dissected and selected tissues (heart, lung, liver, spleen, kidneys, stomach, small intestine, large intestine, muscle, skin, and tumor) were analyzed for fluorescence activity using IVIS imager using same settings as in whole body imaging.

[3] = 10 nmol i.v., 2 h, listed as OTL38
[4] = 10 nmol i.v., 2 h, listed as Pte-Tyr-S0456
[5] = 10 nmol tail vein, live imaging
[6] = dose escalation 0.3-90 nmol i.v.

CC1(C)C(/C=C/C2=C(Oc3ccc(C[C@H](NC(=O)c4ccc(NCc5cnc6nc(N)[nH]c(=O)c6n5)cc4)C(=O)[O-])cc3)C(=C/C=C3\N(CCCCS(=O)(=O)[O-])c4ccc(S(=O)(=O)[O-])cc4C3(C)C)/CCC2)=[N+](CCCCS(=O)(=O)[O-])c2ccc(S(=O)(=O)[O-])cc21.[H+].[H+].[H+].[H+] [OTL-0038, Pte-Tyr-S0456]
tumor uptake [1]: lower uptake in folate receptor-positive tumors (weak fluorescence intensity)
tumor uptake ([1]; listed as OTL38): lower uptake in FR-positive tumors (weak fluorescence intensity)
whole body imaging, tissue biodistribution and tumor-to-tissue ([1]; 2 nmol dose, 2 h post injection): excellent
time in which nonspecific skin tissue uptake clears ([1]; 10 nmol): ≤ 24 h
tumor fluorescence intensity, direct comparison ([1]; 10 nmol i.v., 2 h): brighter than the mice treated with the other conjugates
tumor-to-tissue ratios ([1]; 10 nmol i.v., 2 h): excellent tumor-to-tissue ratios except the skin
whole body imaging: accumulation ([1]; 10 nmol i.v., 2 h): accumulated predominantly in the folate receptor-positive tumors
ex vivo tissue biodistribution [1, 3]: highest fluorescence intensity was observed in FR-positive tumors with no accumulation in the other tissues except the kidneys and skin
whole body imaging: accumulation [1, 3]: accumulated predominantly in the FR positive KB tumors
ex vivo tissue biodistribution [1, 4]: accumulated predominantly in the folate receptor positive tumors with no substantial fluorescence activity in other organs except the kidneys
tumor fluorescence intensity, direct comparison [1, 4]: competitive, in terms of fluorescent brightness, to all folate-NIR conjugates
whole body imaging: accumulation [1, 4]: mainly accumulated in the folate receptor positive tumors and no fluorescence was observed in other tissues
ex vivo tissue biodistribution ([1]; 10 nmol i.v., 2.5 h): highest fluorescence intensity was observed in FR-positive tumors with no accumulation in the other tissues except the kidneys; also recorded: mainly accumulated in folate receptor positive tumor xenografts and kidneys
tumor fluorescence intensity, direct comparison ([1]; 10 nmol i.v., 2.5 h): brighter (higher); also recorded: beneficial aspects relative to folate-LS288, folate-IR800, and folate-ZW800 in tumor accumulated fluorescence intensity
tumor-to-normal tissue fluorescence ratios ([1]; 10 nmol i.v., 2.5 h): excellent tumor-to-normal tissue fluorescence ratios
whole body imaging: accumulation ([1]; 10 nmol i.v., 2.5 h): accumulated predominantly in the folate receptor positive tumors
time point at which clearing from the skin starts [1, 5]: 2 h
time to saturate FR [1, 5]: 2 to 4 h
time to accumulate in FR positive tumor and kidneys ([1]; 10 nmol tail vein, live imaging 15 min to 48 h): ≤ 1 h
skin fluorescence ([1]; 10 nmol, 24-48 hour time points): minimal fluorescence
uptake in sliced (dissected) tumors ([1]; 10 nmol, 2 h): accumulated homogeneously in all tumor cells
fluorescence intensity in the skin ([1]; 10 nmol, 24 h post injection, ImageJ): minimal
fluorescence in tumor ([1]; 10 nmol, 48 hour time point): remains high
non-specific uptake [1]: higher non-specific uptake
non-specific uptake ([1]; listed as OTL38): higher non-specific uptake in healthy tissues
highest dose to obtain best tumor-to-background ratio [1, 6]: 30 nmol
lowest dose to obtain good tumor-to-background ratio [1, 6]: 1.0 nmol
kidney uptake ([1]; dose range 0.3-10 nmol): higher kidney uptake
tumor uptake and tumor-to-normal tissue ratio ([1]; dose range 1.0-30.0 nmol i.v.): tumor uptake and excellent tumor-to-normal tissue ratio
kidney uptake ([1]; dose range 30-90 nmol): less kidney uptake (relative to tumor uptake)
ex-vivo tissue biodistribution [2]: highest fluorescence intensities were observed in FR-positive tumors and kidneys
tumor-to-normal tissue ratios [2]: excellent tumor-to-normal tissue ratios
whole body imaging: accumulation [2]: accumulated mainly in the FR-positive IGROV tumor xenografts
